We go through 2 compounds from paper PMC3744471, “Mitochondria Are the Target Organelle of Differentiation-Inducing Factor-3, an Anti-Tumor Agent Isolated from Dictyostelium Discoideum” (PLoS ONE, 2013).

The nature of data set [1]: Fluorescence microscopy: membrane permeability and cellular localization. Format: cell-based, human. The conditions noted are these: human, pH 7.4, HeLa, read-out: Time to reach maximal level in cells. The method, then: (§1) HeLa cells were cultured for 1–2 days with 2 ml DMEM-FBS in 35-mm tissue culture dishes (Becton Dickinson), washed twice with PBS(–), and then fixed for 15–20 min at room temperature with 2 ml of 3.7% (v/v) formaldehyde in PBS(–). The cells were then washed twice with PBS(–) and used for staining with the fluorescent probes. Alternatively, the fixed cells were treated for 15–20 min with 2 ml of 0.1% (w/v) Triton X-100 in PBS(–), washed twice with PBS(–), and used for staining with the fluorescent probes. […]
(§2) For high magnification multi-color imaging, cells were incubated for the appropriate times with 2 ml of DMEM-FBS (HeLa and 3T3-L1) or MEM-α-FBS (LM8) containing various compounds in 35-mm plastic dishes (tissue culture treated µ-Dish; ibidi, Martinsried, Germany). The cells were washed twice with 2 ml of PBS(–), submerged in 2 ml of Hepes buffer (pH 7.4), and observed at room temperature with a Keyence BZ-9000 fluorescence microscope (Osaka, Japan) equipped with an oil immersion 100× lens (CFI Plan Apo VC100XH) and multi-filters that can distinguish four fluorescent probes simultaneously. […]

The next data set relates to HeLa cells. The description is as above. Format: cell-based, human. The conditions noted are these: 20 µM. How it is done: as §1, §2
Data set [2] has as its system mitochondrial malate dehydrogenase (mMDH). The arrangement: method as in PMID 20173310. The conditions noted are these: cited from earlier work.
The test system of data set [3] is calmodulin-dependent cyclic nucleotide phosphodiesterase (PDE1). The arrangement: method as in PMID 15059913. The following applies: cited from earlier work.

For the compound `CCCCCC(=O)c1c(O)cc(OCCCCNC(=O)CCC2=[N+]3C(=Cc4c(C)cc(C)n4[B-]3(F)F)C=C2)c(Cl)c1O` [BODIPY-DIF-3], the Tmax at 20 µM in data set [1] is not above 30 min. For the same compound, the “Time to penetrate the cell membrane” value with HeLa cells is not above 2 min.
`CCCCCC(=O)c1c(O)cc(OC)c(Cl)c1O` [DIF-3, 1-(3-chloro-2,6-dihydroxy-4-methoxyphenyl)hexan-1-one]: the “Binding to and inhibition of mMDH” value in data set [2] is reported as “neither binds nor inhibits mMDH”. For the same compound, the “Inhibition of PDE1” value in data set [3] is “direct inhibitors of PDE1”.
